The text below walks through data of patent publication US6284799A, “Cancer treatment” (priority 1996, dated 2001).

Series [1] concerns the target ^3 H-DPPE binding (HIC) in rat liver microsomes. Nature of the series: competition for 3H-DPPE binding in liver microsomes.
In series [2] the test system is C-3 fibrosarcoma cells. Nature of the series: tumor promotion in mice injected with C-3 fibrosarcoma cells. Type of series: in vivo, C3H mice. The settings on record: for animals with tumors by day 5: n=10 per group, no controls had tumors; for tumor growth: C-3 fibrosarcoma, FIG. 7, FIG. 9. An excerpt: The experiments were blinded so that the individual measuring the first appearance of palpable tumor was unaware of the treatment group (saline control vs antidepressant drug; n=10 in each group),

Series [3] deals with concanavalin A-stimulated normal lymphocytes. Nature of the series: proliferation of concanavalin A-stimulated normal lymphocytes. The series is classed as cell-based.
In series [4] the test system is HIC. The experiment in a line: competition for 3H-histamine binding to HIC in brain membranes. Conditions: for pKi: rat cortical membranes. The arrangement: species or system rat.
Series [5] relates to phorbol myristate acetate (PMA)-induced platelet aggregation. The experiment in a line: PMA-induced platelet aggregation. Type of series: cell-based. Conditions: for pIC50: Platelet, read-out: IC50, antagonism of PMA-induced platelet aggregation.
The test system of series [6] is MCF-7 human breast cancer cells. The settings on record: MCF7, 168 h, read-out: IC50 value, inhibit/kill growth of MCF-7 cells.
Series [7] concerns L5178Y lymphoma cells. Nature of the series: tumor-promoting effect in DBA/2 mice inoculated subcutaneously with L5178Y lymphoma cells. The series is classed as in vivo. An excerpt: A second group of 7 tumor cell-inoculated mice served as controls (saline injections, once daily×1). By day 14, 7/7 DPPE treated animals had palpable tumors as compared to 4/7 controls. At the end of 4 weeks, 6/7 controls had tumors with an aggregate surface area of 14.5 cm^2 (mean=2.1±0.8 cm^2 /animal), while 7/7 DPPE-treated animals had tumors with an aggregate surface area of 38.4 cm^2 (mean=5.5±0.7 cm^2 /animal). Thus, the tumor burden of DPPE-treatedanimals was approximately 2.5-fold greater than that of controls.

Series [8] concerns PMA-induced inflammation in skin. Nature of the series: PMA-induced skin inflammation in DBA/2 mice. Type of series: in vivo. Here is the method: To investigate any effect of DPPE to increase PMA-induced inflammation in the same strain of mice (DBA/2), groups of 3 animals were shaved over the back and 48 hours later received a single topical application of […] PMA in acetone. The PMA-treated mice then received either saline (control) or DPPE (4 or 32 mg/kg at time 0 and 24 hours). Three animals painted with acetone served as vehicle controls. Forty-eight hours later, the various groups were sacrificed by CO2 asphyxiation, the skin carefully excised, pinned to paper strips to prevent, wrinkling, and immersed in formaldehyde. H and E-stained sections of skin were assessed for degree of inflammation.
Indeed, since tumor promotion requires the presence of inflammatory response, and can be blocked by agents which inhibit inflammation by definition, DPPE functions as a co-promoter with PMA.

For series [9], the system named is rat uterus. Conditions: cited from earlier work.
For series [10] the following is noted: clinically relevant doses to enhance chemotherapy, about 0.2-12 mg/kg; cited from earlier work.
For series [11], the system named is HIC. Nature of the series: inhibition of histamine binding to HIC in microsomes. The arrangement: species or system rat.
[12] abbreviates: 1 mg/kg s.c. once daily x3, end of 4 weeks.

pIC50, pKd, pKi: −log10 of the molar value. Like-named read-outs stand apart in the source and are kept apart here.

Consider `CN(C)CCC=C1c2ccccc2CCc2ccccc21` [amitriptyline], for which the pKi in series [1] (liver microsomes, FIG. 2, read-out: K1 to compete for ^3 H-DPPE binding) is 5.00. Also, the “animals with tumors by day 5” value in series [2] is listed as 4/10. Also, the pIC50 in series [3] (Lymphocyte, in the absence of cytotoxicity, FIG. 5, read-out: IC50, inhibition of proliferation) is 4.70 to 5.00.
Turning to `CCN(CC)CCOc1ccc(C(=O)c2ccc(F)cc2)cc1` [DFPE, N,N=diethyl-2-[4-(4'-fluorophenone)phenoxy] ethanamine], the pKi in series [1] (rat liver microsomes, read-out: KI value, competition for [^3 H] DPPE binding) was approximately 7.15; in series [4], 6.52. In [4] (brain membranes), the “potency relative to DPPE in inhibiting histamine binding at HIC” value is reported as “approximately three times more potent”. Further, the “potency relative to DPPE in HIC binding competition assays” value in [4] (inhibiting normal cell proliferation and promoting malignant cell proliferation) is reported as “two to four times that of DPPE”. Also, in series [5], the “potency relative to DPPE in antagonizing PMA-induced platelet aggregation” value is given as “approximately four times more potent”. Also, the results for the pIC50 in series [5] and in series [6] were 4.70 and 5.52, respectively.
Regarding `CCOC(=O)N1CCC(=C2c3ccc(Cl)cc3CCc3cccnc32)CC1` [loratidine], in [2], the “tumor growth” value is given as “potently promoted tumor growth”. Moreover, the “inhibition of lymphocyte proliferation / mitogenesis” value in series [3] was “inhibited concanavalin A-stimulated mitogenesis”.
Turning to `CC(C)NC[C@H](O)COc1cccc2ccccc12` (racemic) [propanolol], in series [2] (C-3 fibrosarcoma murine model, FIG. 7), the “tumor weight on Day 23” value is “significantly increased tumor weight”. Moreover, the “inhibition of lymphocyte proliferation / mitogenesis” value in series [3] is recorded as “inhibits normal lymphocyte mitogenesis”.
Consider `CCN(CC)CCOc1ccc(Cc2ccccc2)cc1` [DPPE, N,N-diethyl-2-[4-(phenylmethyl)-phenoxy] ethanamine], for which the “animals with palpable tumors by day 14” value in series [7] (1 mg/kg (4 mg/M^2) s.c. once daily x3, day 14, n=7) is reported as 7/7. Also, the “animals with tumors at the end of 4 weeks” value in series [7] (1 mg/kg s.c. once daily x3, 4 weeks, n=7) was 7/7. In addition, in series [7] (setting [12]), the “aggregate tumor surface area” value stood at 38.4 cm^2 and the “mean tumor surface area per animal” value is 5.5±0.7 cm^2 /animal. In addition, in [7] (end of 4 weeks, versus saline controls), the “tumor burden relative to controls” value was “approximately 2.5 fold”. Besides, in series [8] (32 mg/kg (128 mg/M^2)), the “inflammatory response to PMA, high dose” value is “most intense inflammatory response”. Besides, the “mitotic activity in the epithelial layer” value in series [8] (32 mg/kg, versus PMA and saline-treated groups) is on record as “increased mitotic activity”. For the same compound, the “inflammatory response to PMA” value in series [8] (4 or 32 mg/kg at time 0 and 24 hours, skin assessed at 48 hours, versus saline or acetone controls) is “significantly greater inflammatory response”. The compound also gave a pKd in series [1] (^3 H-DPPE binding in liver microsomes) of 7.19. This compound gave a pKi in [4] of 6.05. For the same compound, the “inhibition of lymphocyte proliferation / mitogenesis” value in series [3] is recorded as “inhibit”. Moreover, in series [5], the pIC50 is 4.10. In addition, in series [9], the “antiestrogenic activity in vivo” value is recorded as “antiestrogenic in vivo” and the “effect on tamoxifen action in the rat uterus in vivo” value is “augment the effects of tamoxifen”. In addition, in series [10], the “serious toxic effects in humans” value is “does not cause serious toxic effects”. For the same compound, the pIC50 in series [6] is 5.19.
As to `COc1ccc(CCN2CCC(Nc3nc4ccccc4n3Cc3ccc(F)cc3)CC2)cc1` [Astemizole], in [2], the “tumor growth” value is given as “potently stimulate the growth”. In series [3], the “inhibition of lymphocyte proliferation / mitogenesis” value was “potent to inhibit”. Moreover, the “inhibition of histamine binding to HIC” value in [11] was “potent to inhibit histamine binding”.
For the compound `CNCCC(Oc1ccc(C(F)(F)F)cc1)c1ccccc1` (stereo not shown) [fluoxetine], in [2], the “animals with tumors by day 5” value was 4/10.
